Test results from ChEMBL document CHEMBL1833939, “Pyrrolidin-3-yl-N-methylbenzamides as potent histamine 3 receptor antagonists” (Bioorg Med Chem Lett, 2011).

Assay: in vitro
Conditions: human

| half-life (microsomes) [min] | half-life (liver microsomes) [min] | Structure (SMILES) |
| --- | --- | --- |
| > 30 | – | Cc1nc2ccccc2n1-c1ccc(C(=O)N(C)[C@@H]2CCN(C3CCCCC3)C2)cc1 |
| – | > 30 | Cc1nc2ccccc2n1-c1ccc(C(=O)N(C)[C@@H]2CCN(C3CCCC3)C2)cc1 |
| – | 15 | Cc1nc2ccccc2n1-c1ccc(C(=O)N(C)[C@@H]2CCN(C3CCC3)C2)cc1 |
